Measured values as given in patent publication US9532970B2, “Compositions for anti-inflammatory, antioxidant effects and improved respiratory function by specific histone deacetylase inhibition” (priority 2014, dated 2017).
Like-named read-outs stand apart in the source and are kept apart here.

Tests used:
[1] = target: HDAC-3 (Homo sapiens, UniProt O15379)
[2] = target: T1, HDAC-6 (Homo sapiens, UniProt Q9UBN7)
T1 sequence (Q9UBN7 1-1215): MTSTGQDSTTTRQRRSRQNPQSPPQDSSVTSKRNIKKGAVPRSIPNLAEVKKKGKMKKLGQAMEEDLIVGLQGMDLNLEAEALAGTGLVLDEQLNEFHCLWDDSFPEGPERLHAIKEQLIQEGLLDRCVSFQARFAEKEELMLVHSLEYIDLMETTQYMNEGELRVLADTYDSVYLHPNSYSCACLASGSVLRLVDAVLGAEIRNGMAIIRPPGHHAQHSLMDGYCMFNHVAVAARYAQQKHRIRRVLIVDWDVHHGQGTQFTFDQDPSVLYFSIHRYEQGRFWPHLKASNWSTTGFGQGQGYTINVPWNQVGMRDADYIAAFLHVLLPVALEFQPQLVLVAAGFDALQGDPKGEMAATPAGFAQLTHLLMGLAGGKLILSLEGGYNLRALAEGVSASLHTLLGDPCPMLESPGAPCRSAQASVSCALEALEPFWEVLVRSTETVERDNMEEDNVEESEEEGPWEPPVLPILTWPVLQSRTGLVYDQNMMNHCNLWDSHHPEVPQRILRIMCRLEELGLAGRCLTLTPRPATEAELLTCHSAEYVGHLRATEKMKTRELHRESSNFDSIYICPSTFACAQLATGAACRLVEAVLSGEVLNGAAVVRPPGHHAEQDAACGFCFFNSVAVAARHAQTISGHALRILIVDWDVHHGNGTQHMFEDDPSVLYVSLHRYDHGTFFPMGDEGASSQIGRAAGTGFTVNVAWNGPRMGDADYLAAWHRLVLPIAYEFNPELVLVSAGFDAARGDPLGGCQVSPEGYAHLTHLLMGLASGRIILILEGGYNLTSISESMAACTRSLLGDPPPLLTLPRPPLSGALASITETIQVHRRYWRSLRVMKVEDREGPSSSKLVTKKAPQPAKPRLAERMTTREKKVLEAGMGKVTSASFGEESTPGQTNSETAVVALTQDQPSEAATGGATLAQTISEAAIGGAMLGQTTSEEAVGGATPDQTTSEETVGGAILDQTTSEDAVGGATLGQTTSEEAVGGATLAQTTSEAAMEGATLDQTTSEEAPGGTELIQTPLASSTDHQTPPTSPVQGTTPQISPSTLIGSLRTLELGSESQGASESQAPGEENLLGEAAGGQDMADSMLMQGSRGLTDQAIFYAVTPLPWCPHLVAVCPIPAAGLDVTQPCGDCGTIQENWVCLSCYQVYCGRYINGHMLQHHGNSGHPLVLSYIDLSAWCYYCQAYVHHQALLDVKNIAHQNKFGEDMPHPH

[3] = target: T2, HDAC8 (Homo sapiens, UniProt Q9BY41)
Target sequence in this assay (Q9BY41 whole entry, species assumed): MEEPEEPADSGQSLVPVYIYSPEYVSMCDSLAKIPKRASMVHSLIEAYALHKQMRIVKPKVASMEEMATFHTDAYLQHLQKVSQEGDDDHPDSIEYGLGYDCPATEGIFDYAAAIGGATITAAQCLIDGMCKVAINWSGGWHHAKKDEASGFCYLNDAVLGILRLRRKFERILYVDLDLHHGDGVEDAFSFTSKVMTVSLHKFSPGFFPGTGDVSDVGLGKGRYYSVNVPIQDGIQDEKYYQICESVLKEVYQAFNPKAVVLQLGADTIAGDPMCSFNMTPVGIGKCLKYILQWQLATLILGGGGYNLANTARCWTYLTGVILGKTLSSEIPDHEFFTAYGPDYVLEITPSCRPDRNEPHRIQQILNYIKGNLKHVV

[4] = target: T2, HDAC8; settings: FIG. 2
Target sequence in this assay (Q9BY41 whole entry): as the sequence (Q9BY41 whole entry, species assumed) above

[5] = system: naphthalene-induced airway epithelial damage; settings: 5 mg/kg ip
[6] = system: Horse PBMC; settings: for Log2 Fold Change: LSF vs control
[7] = more subtle than Trichostatin A
[8] = three control vs three LSF treated samples

HDAC-3, sequence (O15379 whole entry, species assumed): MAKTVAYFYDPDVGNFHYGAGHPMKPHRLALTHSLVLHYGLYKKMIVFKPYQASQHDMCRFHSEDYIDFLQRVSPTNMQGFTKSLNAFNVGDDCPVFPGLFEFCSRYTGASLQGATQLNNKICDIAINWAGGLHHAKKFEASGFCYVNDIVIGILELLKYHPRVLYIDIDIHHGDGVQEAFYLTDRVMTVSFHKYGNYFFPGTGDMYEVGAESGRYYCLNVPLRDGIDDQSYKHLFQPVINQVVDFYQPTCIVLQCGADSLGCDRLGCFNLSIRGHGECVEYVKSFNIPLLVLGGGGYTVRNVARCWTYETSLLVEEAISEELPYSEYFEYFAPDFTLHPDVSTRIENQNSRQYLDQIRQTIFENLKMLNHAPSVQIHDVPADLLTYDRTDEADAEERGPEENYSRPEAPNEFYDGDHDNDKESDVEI
HDAC-3, sequence (Q9Y618 395-489 partner limits assumed, species assumed): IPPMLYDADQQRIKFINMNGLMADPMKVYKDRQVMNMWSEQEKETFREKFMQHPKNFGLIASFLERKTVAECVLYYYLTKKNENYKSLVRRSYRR

## C[S@@+]([O-])CCCCN=C=S [LSF, (R)-1-Isothiocyanato-4-(methylsulfinyl)butane]
[1]; HDAC-3
  HILLSLOPE: −0.20
[1]; [7]
  binding to HDAC 3 (in words): specific binding
[2]; HDAC-6
  HILLSLOPE: −0.88
[2]; [7]
  binding to HDAC 6 (in words): specific binding
[3]; FIG. 1
  binding to HDAC8 relative to the other HDACs: most pronounced
[3]; HDAC-8
  HILLSLOPE: −0.88
[3]; [7]
  binding to HDAC 8 (in words): specific binding
[4]
  inhibition of the enzymatic activity of HDAC8: inhibits
[4]; HDAC1 and HDAC8 inhibitor Screening Assay Kits
  specificity of inhibition, HDAC8 compared to HDAC1: specificity of L-sulforaphane for HDAC8 compared to HDAC1
[5]; 24 hours post-naphthalene, level analogous to dexamethasone 1 mg/kg
  epithelial denudation: reduces
[5]; 72 hours post-naphthalene, efficacy similar to dexamethasone
  lamina reticularis thickness: reduces
[6]; gene ABCA1
  Log2 Fold Change: −4.37
[6]; gene APOBEC3Z1B
  Log2 Fold Change: −3.67
[6]; gene ASPH
  Log2 Fold Change: 1.93
[6]; gene C2
  Log2 Fold Change: −2.13
[6]; gene CD180
  Log2 Fold Change: −2.97
[6]; gene CMKLR1
  Log2 Fold Change: −3.79
[6]; gene CSF3R
  Log2 Fold Change: −3.76
[6]; gene CXCL9
  Log2 Fold Change: −2.55
[6]; gene CYP1B1
  Log2 Fold Change: −3.83
[6]; gene DENND2A
  Log2 Fold Change: 3.67
[6]; gene FRMPD4
  Log2 Fold Change: −3.80
[6]; gene FTL
  Log2 Fold Change: 1.51
[6]; gene GSAP
  Log2 Fold Change: 2.00
[6]; gene IL8
  Log2 Fold Change: 3.54
[6]; gene KCNJ2
  Log2 Fold Change: 2.06
[6]; gene MAFB
  Log2 Fold Change: −2.66
[6]; gene ME1
  Log2 Fold Change: 1.47
[6]; gene MN-SOD
  Log2 Fold Change: 1.93
[6]; gene NR1H3
  Log2 Fold Change: −2.56
[6]; gene OSGIN2
  Log2 Fold Change: 1.88
[6]; gene PLEKHA4
  Log2 Fold Change: −3.60
[6]; gene PTPN12
  Log2 Fold Change: 1.43
[6]; gene RIPK2
  Log2 Fold Change: 2.01
[6]; gene RNASE6
  Log2 Fold Change: −2.45
[6]; gene SERPINB2
  Log2 Fold Change: −4.65
[6]; gene SLAMF8
  Log2 Fold Change: −2.75
[6]; gene SLC7A8
  Log2 Fold Change: −3.35
[6]; gene SLC7A11
  Log2 Fold Change: 2.34
[6]; gene SLC37A2
  Log2 Fold Change: −2.72
[6]; gene SORCS1
  Log2 Fold Change: −2.71
[6]; gene STAC2
  Log2 Fold Change: 3.38
[6]; gene STXBP5
  Log2 Fold Change: 1.57
[6]; gene TGM2
  Log2 Fold Change: −3.99
[6]; gene TNFSF15
  Log2 Fold Change: 2.40
[6]; gene TNS3
  Log2 Fold Change: −3.09
[6]; gene TUBA4A
  Log2 Fold Change: 1.30
[6]; gene TXN
  Log2 Fold Change: 1.87
[6]; gene TXNRD1
  Log2 Fold Change: 2.13
[6]; gene WDR59
  Log2 Fold Change: 2.19
[6]; gene ZFAND2A
  Log2 Fold Change: 2.22
[6]; [8]
  differentially expressed genes (number): 5951
  down-regulated genes (number): 3012
  up-regulated genes (number): 2939
